Publication PMC12194305, “Assessing Bioconcentration and Biotransformation of BDE-47 In Vitro: The Relevance of Bioavailable and Intracellular Concentrations” (Journal of Xenobiotics, 2025)
Values joined by “and” are separate entries in the source; they are usually repeats but may differ in a detail not shown here. Equal values may be shown once. Read-outs that look alike come from different tables or passages of the source.

Columns and labels:
[1] = Experimental determination of free bioavailable concentration (Cfree,exp) in exposure medium by SPME; assay type: in vitro ADME; conditions: for Cfree, exp: 28 °C, 72 h
Experimental: In parallel with the exposure experiment for the evaluation of bioaccumulation and biotransformation described in the previous sections, an experiment was performed to estimate experimentally the free bioavailable concentration (Cfree,exp) in the test medium. For this purpose, an experiment was designed to simulate the test conditions, and Cfree was determined using solid-phase microextraction (SPME), following the fiber method developed by Henneberger et al..
PDMS-coated glass microfibers (30 µm thick, 13.19 µL/m coating volume) were cut into 1.5 cm pieces and cleaned in methanol for more than 24 h prior to the experiment, with the solvent replaced at least three times. The cleaned and dried fiber was placed in a glass vial with 1 mL of sample exposure medium containing 1.8 and 2.6 mg·L^−1 BDE-47. Three replicates were prepared for each condition. A portion of the initial sample was stored at −20 °C until analysis. The vials were then sealed and incubated with rotation at 28 °C for 72 h until equilibrium of BDE-47 distribution among the fiber, medium, and binding to the predominant serum protein of the culture (Bovine serum albumin, BSA) was reached. Once at equilibrium, the fibers were extracted from the vials and desorbed with 400 µL isooctane for 24 h with rotation. Finally, the extract was analyzed by GC-MS-µECD, as described in Section 2.5. The concentration of BDE-47 in the initial sample (Cmed,0h) and in the resulting media after equilibration (Cmed,eq) was determined according to the procedure described in Section 2.5, to confirm the actual mass balance.
Since this study evaluates and discusses the behavior of BDE-47 in comparison to observations from a previous study with phenanthrene, as explained in the introduction section, the experimental Cfree of phenanthrene was also determined, as it had not been measured previously. In this case, the difference in the process was that PA fibers (36 µm thick, 16.71 µL/m coating volume) were used. Samples of 10 and 20 mg·L^−1 PHE were prepared, and the fibers and samples were incubated for 24–48 h until equilibrium was reached, and desorbed with hexane for 3 h.
To determine the free concentration, concentration in the SPME fiber (Cfiber) was first estimated using Equation (1) from the concentration measured in the desorption extract (Cdes), the desorption volume (Vdes) and the coating volume of the fiber (Vfiber). This volume was estimated according to the coating volume and the length of the fiber.(1) Cfiber=Cdes·Vdes/Vfiber
Next, Cfree,exp was determined at the time before the SPME fiber was added to the system, according to Equation (2). For this, the concentration measured in the fiber equilibrated with the medium (PDMS-BDE-47-BSA or PA-PHE-BSA), the concentration measured in the initial sample (Cmed,0h), and the partition constant of the equilibrium formed between the fiber and the medium (log DPDMS/medium; BDE-47 = 5.84 [25]; log DPA/medium; PHE = 6.69 [26]) were used.(2) Cfree=Cmed,0h·Vsample/Dfiber/medium·Cmed,0h·Vsample/Cfiber−Vfiber

ZFL cells = assay: Substrate depletion in ZFL cells, inputs of the IVIVE-BCF model; assay type: in vitro ADME, zebrafish
Excerpt: One of the objectives was to assess whether cell lines can be used within the BCF-IVIVE model, relying on intrinsic clearance in vitro, to estimate the biotransformation rate which is subsequently extrapolated to adult fish. This approach is based on the model developed by Nichols et al. and is endorsed by the OECD guideline 319A [10] and OECD 2018a. Briefly, the log10-transformed substrate experimental concentrations in the medium (Cmed) were plotted against time, and the first-order elimination rate constant (ke, h^−1) was determined as −2.3 × slope of the log-linear decline. Black et al. indicate that a correction to the elimination rate constant (ke) should be applied when the following conditions are met: (i) abiotic losses from volatilization, calculated by comparing the recovery of negative control samples (“no cells”) at each exposure time to the initial time, fall outside the acceptable range of 80–120%, (ii) the loss process follows first order kinetics, and (iii) the ratio of ke and the volatilization rate constant (kvolat) is below 10 (ke/kvolat < 10). Then, the constant corrected for losses due to volatilization (ke,loss) was determined as −2.3 × the difference of the slopes of the sample and the loss control of the log-linear descent. The in vitro constant was then extrapolated to obtain an in vivo metabolization constant (kMET). This was done using experimental cell concentration (CHEP, 10^6 cells/mL) and default parameters derived from rainbow trout. In this study, in addition to estimating BCF with the official model parameters derived from rainbow trout (BCFIVIVE,RT), BCF was also estimated with the literature-derived parameters for zebrafish (BCFIVIVE,ZF), due to the use of ZFL cells. Finally, the BCF was estimated by the ratio of concentration in the organism to concentration in the medium, following the standardized model. […]

zebrafish = assay: IVIVE-BCF model with zebrafish default parameters; assay type: in vitro ADME; conditions: for BCFIVIVE, ZF: ZFL cells, zebrafish parameters
Excerpt: (§1) One of the objectives was to assess whether cell lines can be used within the BCF-IVIVE model, relying on intrinsic clearance in vitro, to estimate the biotransformation rate which is subsequently extrapolated to adult fish. This approach is based on the model developed by Nichols et al. and is endorsed by the OECD guideline 319A [10] and OECD 2018a. Briefly, the log10-transformed substrate experimental concentrations in the medium (Cmed) were plotted against time, and the first-order elimination rate constant (ke, h^−1) was determined as −2.3 × slope of the log-linear decline. Black et al. indicate that a correction to the elimination rate constant (ke) should be applied when the following conditions are met: (i) abiotic losses from volatilization, calculated by comparing the recovery of negative control samples (“no cells”) at each exposure time to the initial time, fall outside the acceptable range of 80–120%, (ii) the loss process follows first order kinetics, and (iii) the ratio of ke and the volatilization rate constant (kvolat) is below 10 (ke/kvolat < 10). Then, the constant corrected for losses due to volatilization (ke,loss) was determined as −2.3 × the difference of the slopes of the sample and the loss control of the log-linear descent. The in vitro constant was then extrapolated to obtain an in vivo metabolization constant (kMET). This was done using experimental cell concentration (CHEP, 10^6 cells/mL) and default parameters derived from rainbow trout. In this study, in addition to estimating BCF with the official model parameters derived from rainbow trout (BCFIVIVE,RT), BCF was also estimated with the literature-derived parameters for zebrafish (BCFIVIVE,ZF), due to the use of ZFL cells. Finally, the BCF was estimated by the ratio of concentration in the organism to concentration in the medium, following the standardized model. The concentration in the organism was predicted using the one-compartment model given by Arnot and Gobas, which includes the rate constants describing chemical uptake (k1), loss through the gills (k2), fecal egestion (kE), growth rate (kG) and metabolization rate (kMET). Except for kMET, which is estimated experimentally in vitro, the rest are only dependent on the log KOW of the compound. On the other hand, due to the use of cell lines, the free concentration estimated was introduced instead of the total concentration in the medium (CW,TOT).

rainbow trout [2] = assay: IVIVE-BCF model with rainbow trout default parameters; assay type: in vitro ADME; conditions: for BCFIVIVE, RT: ZFL cells, rainbow trout parameters
Excerpt: as §1

[3] = design: method as in PMID 37289209; conditions: initial exposure 20 mg·L^−1, HepG2 cell assay at 37 °C; cited from earlier work
rainbow trout [4] = assay: IVIVE-BCF model with rainbow trout default parameters; assay type: in vitro ADME; conditions: k1 and k2 from experimental Ccell and Cfree
[5] = system: zebrafish eleutheroembryos; design: method as in PMID 36705440; conditions: cited from earlier work
young Psetta maxima = system: young Psetta maxima; design: method as in doi:10.1007/s11270-014-2072-0; conditions: cited from earlier work

Brc1ccc(Oc2ccc(Br)cc2Br)c(Br)c1 [BDE-47, 2,2′,4,4′-tetrabromodiphenyl ether]
% Cfree, exp ([1]; Cnom 1.8 mg·L^−1, % of total concentration): 0.06% and 0.06 ± 0.03% | Cfree, exp ([1]; Cnom 1.8 mg·L^−1, PDMS fiber): (0.4 ± 0.2) µg·L^−1 | % Cfree, exp ([1]; Cnom 2.6 mg·L^−1, % of total concentration): 0.08% and 0.079 ± 0.003% | Cfree, exp ([1]; Cnom 2.6 mg·L^−1, PDMS fiber): (1.14 ± 0.04) µg·L^−1 | ke,loss (ZFL cells; Experiment 1.8 mg·L-1, corrected for volatilization losses): 0.012 h⁻¹ | ke,loss (ZFL cells; Experiment 2.6 mg·L-1, corrected for volatilization losses): 0.002 h⁻¹ | Cw, TOT (Cfree,exp) (ZFL cells; Experiment 2.6 mg·L-1, input parameter): 0.0016 mg/L | CLH (zebrafish; 1.8 mg·L-1, ZF): 2.01 mL/h/kg | CLIN VITRO, INT (zebrafish; 1.8 mg·L-1, ZF): 0.0220 mL/h/106 cells | kMET (zebrafish; 1.8 mg·L-1, ZF): 0.0022 day⁻¹ | CLH (zebrafish; 2.6 mg·L-1, ZF): 0.333 mL/h/kg | CLIN VITRO, INT (zebrafish; 2.6 mg·L-1, ZF): 0.0037 mL/h/106 cells | kMET (zebrafish; 2.6 mg·L-1, ZF): 0.0004 day⁻¹ | BCFIVIVE, ZF (zebrafish; Cnominal 1.8 mg·L^−1): 13,885 L·kg^−1 | BCFIVIVE, ZF (zebrafish; Cnominal 2.6 mg·L^−1): 14,926 L·kg^−1 | CLH (rainbow trout [2]; 1.8 mg·L-1, RT): 8.217 mL/h/kg | CLIN VITRO, INT (rainbow trout [2]; 1.8 mg·L-1, RT): 0.0220 mL/h/106 cells | kMET (rainbow trout [2]; 1.8 mg·L-1, RT): 0.0092 day⁻¹ | CLH (rainbow trout [2]; 2.6 mg·L-1, RT): 1.38 mL/h/kg | CLIN VITRO, INT (rainbow trout [2]; 2.6 mg·L-1, RT): 0.0037 mL/h/106 cells | kMET (rainbow trout [2]; 2.6 mg·L-1, RT): 0.0015 day⁻¹ | BCFIVIVE, RT (rainbow trout [2]; Cnominal 1.8 mg·L^−1): 7221 L/kg | BCFIVIVE, RT (rainbow trout [2]; Cnominal 2.6 mg·L^−1): 14,184 L·kg^−1 | volatilization loss [3]: 14% | BCFIVIVE, RT, exp (rainbow trout [4]; Cnominal 1.8 mg·L^−1): 26,306 L·kg^−1 | BCFIVIVE, RT, exp (rainbow trout [4]; Cnominal 2.6 mg·L^−1): 48,635 L·kg^−1 | BCF48 h ([5]; 1 µg·L^−1, zebrafish larvae): 16,392 L·kg^−1 | BCFk ([5]; 1 µg·L^−1, zebrafish larvae): 36,363 L·kg^−1 | BCF48 h ([5]; 10 µg·L^−1, zebrafish larvae): 4106 L/kg | BCFk ([5]; 10 µg·L^−1, zebrafish larvae): 7295 L/kg | BCFk (young Psetta maxima; 0.001 µg·L^−1): 33,103 L·kg^−1 | BCFk (young Psetta maxima; 0.1 µg·L^−1): 15,531 L·kg^−1 | BCFk (young Psetta maxima; 1 µg·L^−1): 24,125 L·kg^−1
